Positions of bridges follow the written chain, without caps; N, C: chain ends. No end group written: not given here.

Assay [1] has as its system skin, affected site. Description: Cyclic peptides with amino acid replacement: effects on skin (formulations A to E = 3, 15, 30, 100, 500 μg/ml in purified water). It counts as in vivo, human. The protocol: Next, cyclic peptides with some replaced amino acid were subjected to following examination in order to confirm their effect. The methods for preparing the above cyclic peptide and confirming amino acid sequence of the prepared peptide were same as the method for preparing the cyclic peptide as described above and Mass spectroscopy method.
9.2 Confirming Effects on Skin
The obtained cyclic peptide was prepared in purified water at 3, 15, 30, 100 or 500 μg/ml and applied to affected site. Each of formulations A to E in the table indicates the concentration of the cyclic peptide at 3, 15, 30, 100 or 500 μg/ml, respectively. The absence of the effect upon the application of purified water without the peptide confirmed the effect was not a placebo effect.

Assay [2] deals with skin condition of the subjects. The assay can be described thus: Skin condition upon using bath agent comprising B ring. It counts as in vivo, human. Conditions: bath in 37 to 41° C. hot water with 0.01 μM, once a day for 14 days. The protocol: 4.4 Observation on Skin Condition Upon Using Bath Agent Comprising B Ring
Subjects were given bath in 37 to 41° C. hot water comprising B ring dissolved at 0.01 μM (100 ml of 20 μM B ring solution dissolved in 200 L hot water) once a day for 14 days, and skin condition of the subjects was compared to the case of hot water alone (Table 14). The changes in skin conditions were determined based on physical sensory evaluation by the subject and our objective observation as physicians.

Where [3] appears, read: eczema, formulation C (30 μg/ml in purified water), once a day.
[4] abbreviates: chronic eczema, formulation C (30 μg/ml in purified water), once a day.
The mark [5] stands for this setting: atopic dermatitis, formulation C (30 μg/ml in purified water), once a day.
Where [6] appears, read: formulation C = 30 μg/ml cyclic peptide in purified water, applied to affected site, one line per subject (ID Q..), diagnosis and treatment as in the table line.
Where [7] appears, read: roughened skin, formulation C (30 μg/ml in purified water), once a day.

For the substance “SEQ ID NO 69 (CFGRRMDRISSSTGIGC; disulfide 1-17)”, the “Diagnostic impression on skin after application” value (“Diagnostic impression on skin” for short) in assay [1] (setting [3]) is on record as “After 2 minutes, erythema, scales,”.

Take “SEQ ID NO 61 (CFSRRMDRISSSSGIGC; disulfide 1-17)”: the “Diagnostic impression on skin” value in assay [1] (chronic, formulation C (30 μg/ml in purified water), once a day) is on record as “Immediately after application, erythema”.

Regarding “SEQ ID NO 64 (CFSRKMDRISSSTGIGC; disulfide 1-17)”, in assay [1] (setting [4]), the “Diagnostic impression on skin” value was “Immediately after application, erythema”.

Consider “SEQ ID NO 72 (CFSRRMDRISSTSGLAC; disulfide 1-17)”, for which the “Diagnostic impression on skin” value in assay [1] (setting [4]) was “Immediately after application, erythema,”.

“Ser-Pro-Lys-Met-Val-Gln-Gly-Ser-Gly-Cys-Phe-Gly-Arg-Lys-Met-Asp-Arg-Ile-Ser-Ser-Ser-Ser-Gly-Le u-Gly-Cys-Lys-Val-Leu-Arg-Arg-His [BNP, reference compound]”: in assay [2], the “Changes in subjective symptoms” value is “No subjective remission of skin” and the Post-application symptoms result is recorded as “No remission of skin desiccation”.

For “SEQ ID NO 43 (CFGRKMDRISSSTGLGC; disulfide 1-17)”, the “Diagnostic impression on skin” value in assay [1] (setting [5]) was “After 2 minutes, no discomfort, felt”; in assay [1] (setting [3]), “After 1 minute, redness and infiltration”; in assay [1] (rosacae/acne, formulation C (30 μg/ml in purified water), once a day), “After 7 minutes, acne was reduce and”; in assay [1] (roughened lips, formulation C (30 μg/ml in purified water), once a day) it was 1 minute after application, dry skin; in assay [1] (roughened skin, formulation B (15 μg/ml in purified water), once a day), “After 3 minutes, redness and dry skin”. Further, the Itches after application result is on record as “After 3 minutes,” in assay [1] (setting [5]) and “Iches were eliminated” in assay [1] (setting [3]).

For “SEQ ID NO 58 (CFGRKMDRISSSSGIAC; disulfide 1-17)”, in assay [1] (setting [3]), the “Diagnostic impression on skin” value is given as “After 2 minutes, erythema, scales,”.

In the case of “SEQ ID NO 75 (CFSRRMDRISSSSGIAC; disulfide 1-17)”, the “Diagnostic impression on skin” value in assay [1] (setting [3]) is listed as “After 2 minutes, erythema, scalesm”.

“SEQ ID NO 63 (CFSRKMDRISSTSGIGC; disulfide 1-17)”: the “Diagnostic impression on skin” value in assay [1] (eczema, formulation B (15 μg/ml in purified water), once a day) is “After 3 minutes, erythema and scales”.

As to “SEQ ID NO 18 (CFGHKMDRISSSSGLGC; disulfide 1-17)”, the “Diagnostic impression on skin” value in assay [1] (setting [6]) was “After 2 minutes, redness was remitted”.

Take “SEQ ID NO 26 (CFGRKMDRISSVSGLGC; disulfide 1-17)”: in assay [1] (setting [6]), the “Diagnostic impression on skin” value was “After 2 minutes, remitted”.

On to “SEQ ID NO 39 (CFSRKMDRISSSSGLGC; disulfide 1-17)”, for which the “Diagnostic impression on skin” value in assay [1] (setting [6]) is “After 3 minutes, nodes were flattened”.

On to “SEQ ID NO 53 (CFGRRMDRISSSSGLAC; disulfide 1-17)”, for which the “Diagnostic impression on skin” value in assay [1] (setting [3]) was “After 1 minute, erythema and infiltration”.

Regarding “SEQ ID NO 16 (CFVRKMDRISSSSGLGC; disulfide 1-17)”, the “Diagnostic impression on skin” value in assay [1] (setting [6]) is recorded as “After 3 minutes, erythema was remitted”.

For the substance “SEQ ID NO 74 (CFSRRMDRISSSTGLAC; disulfide 1-17)”, the “Diagnostic impression on skin” value is “Iches were eliminated immediately after” in assay [1] (chronic eczema, formulation D (100 μg/ml in purified water), once a day); “After 1 minute, rawness and hot flash” in assay [1] (setting [7]).

As for “SEQ ID NO 47 (CFSRKMDRISSSTGLGC; disulfide 1-17)”, in assay [1] (setting [4]), the “Diagnostic impression on skin” value was “Immediately after application, erythema”.

“SEQ ID NO 68 (CFGRRMDRISSTSGLAC; disulfide 1-17)”: the “Diagnostic impression on skin” value in assay [1] (setting [4]) was “Immediately after application, erythema”.

For the substance “SEQ ID NO 70 (CFGRRMDRISSSTGLAC; disulfide 1-17)”, the “Diagnostic impression on skin” value in assay [1] (setting [4]) is on record as “immediately after application, erythema”; in assay [1] (setting [7]) it was “Redness vanished in 30 seconds. After 1”.

“SEQ ID NO 73 (CFSRRMDRISSSTGIGC; disulfide 1-17)”: the “Diagnostic impression on skin” value in assay [1] (setting [4]) was “Immdediately after application, erythema”.

As to “SEQ ID NO 49 (CFSRKMDRISSSSGLAC; disulfide 1-17)”, the “Diagnostic impression on skin” value in assay [1] (setting [4]) is “Immediately after application, erythema”.

Regarding “SEQ ID NO 44 (CFGRKMDRISSSAGLGC; disulfide 1-17)”, in assay [1] (setting [3]), the “Diagnostic impression on skin” value is “After 1 minute, erythema and infiltration”; the Itches after application result is given as “Iches were remitted”. Also, the “Diagnostic impression on skin” value in assay [1] (healthy skin, formulation B (15 μg/ml in purified water), once a day) is listed as “Skin got moisturized promptly, wrinkles”.

Take “SEQ ID NO 65 (CFSRKMDRISSSTGLAC; disulfide 1-17)”: the “Diagnostic impression on skin” value in assay [1] (setting [7]) is reported as “After 1 minute, skin got moisturized and”.

“SEQ ID NO 42 (CFGRKMDRISSASGLGC; disulfide 1-17)”: the “Diagnostic impression on skin” value in assay [1] (acne, formulation C (30 μg/ml in purified water), once a day) was “After 1 minute, redness was remitted”; in assay [1] (setting [3]) it was “After 3 minutes, erythema and dry skin”. The Itches after application entry in assay [1] (atopic dermatitis, formulation B (15 μg/ml in purified water), once a day) is on record as “Iches were eliminated”.

For “SEQ ID NO 60 (CFSRRMDRISSSTGLGC; disulfide 1-17)”, the “Diagnostic impression on skin” value in assay [1] (setting [4]) is “Immediately after application, erythema”.

The values above are taken from patent US12065512B2, “Cyclic peptide and a medicament, external preparation and cosmetic comprising said cyclic peptide” (Igisu Co., Ltd., priority 2015, dated 2024).
